The values below come from patent publication US11191811B2, “Osteocalcin as a treatment for frailty associated with aging” (THE TRUSTEES OF COLUMBIA UNIVERSITY IN THE CITY OF NEW YORK, priority 2014, dated 2021).

One data set concerns wild-type. Nature of the data set: Glycolysis, extracellular acidification rate (ECAR). Type of data set: cell-based, mouse. Conditions: ECAR (FIG. 20); in muscle. The text has this:
FIG. 20. Osteocalcin favors glycolysis. (a) Effect of increasing amounts of uncarboxylated osteocalcin on change in extracellular acidification rate (ECAR) in wild-type mice. The effect of insulin is also shown for comparison. (B) Effect of uncarboxylated osteocalcin on ECAR of wild-type and Gprc6a^−/− mice. (C) L-lactate production in wild-type and Gprc6a^−/− mice.

Data set [1] has as its system wild type mice. Briefly: Glycemia during subcutaneous infusion. It is filed as in vivo, mouse. As to conditions: 0.3, 1 and 3 ng/hour subcutaneously for 28 days, versus PBS. As for the experimental part:
FIG. 1. Osteocalcin subcutaneous infusion decreases glycemia in wild-type mice. Indicated doses of recombinant osteocalcin or PBS were infused subcutaneously for 28 days in wild-type mice. Blood glucose was measured at indicated days.
An in vivo experiment was conducted in which the effect of undercarboxylated osteocalcin on glycemia was monitored. Wild type mice were infused with 3 different amounts of mouse recombinant undercarboxylated osteocalcin or placebo (PBS) subcutaneously for 28 days (0.3, 1 and 3 ng/hour). Compared to the control animal infused with placebo, all three doses of undercarboxylated osteocalcin decreased glycemia in vivo over the 28 day period (FIG. 1).

For the next data set, the system named is Gprc6aMck−/− mice. Briefly: Endurance exercise on treadmill until exhaustion. It is filed as in vivo, mouse. As to conditions: Gprc6aMck−/− mice treated with Ocn. As for the experimental part:
First, whether a single intraperitoneal injection of uncarboxylated mouse osteocalcin (osteocalcin) (100 ng/g of body weight) immediately before exercise would improve the exercise capacity of 3 month-old WT mice was tested.
For exercise studies, all mice were trained before the tests to run on a treadmill (Harvard apparatus) for three days (10 minutes/day). The day of the test, mice were acclimated to the treadmill for 5 minutes followed by 10 minutes running at a constant speed of 17 cm/s, then a gradual increase in the speed up to 30 cm/s. Next, mice were run until exhaustion as defined by the number of times a mouse fell off to the electric grid during one minute (>15). Measurements of muscle strength were carried out using a grip strength meter (Columbus instruments). Values are expressed as the average of five single measurements, taken one minute apart from each other. For all biochemical and metabolic analyses performed, blood/tissues were collected and processed either at rest or at the end of a 40 min run (30 cm/s).

Data set [2] concerns wild type mice. Briefly: Insulin sensitivity test after subcutaneous infusion. As to conditions: 0.3 or 3 ng/hour subcutaneously for 18 days, 0-120 minutes after insulin injection. Type of data set: in vivo, mouse. As for the experimental part:
FIG. 3. Osteocalcin subcutaneous infusion increases insulin sensitivity in wild-type mice. Wild-type mice were infused subcutaneously with indicated doses of recombinant osteocalcin or PBS for 18 days before receiving a single injection of insulin. Blood glucose was measured thereafter at indicated times.
The effect of uncarboxylated osteocalcin on insulin sensitivity was also examined. Wild type mice were infused subcutaneously with 0.3 or 3 ng/hour doses of recombinant osteocalcin or PBS for 18 days before receiving a single injection of insulin. Blood glucose was measured thereafter at the indicated times from 0-120 minutes after injection.

A short description of data set [3]: Osteocalcin in blood of ICV-infused Osteocalcin−/− mice. Conditions: ICV infusion 10 ng/hour. It is filed as in vivo, mouse. As for the experimental part: For osteocalcin delivery to pregnant mice, IP injections (240 ng/day) were performed as soon as a plug was present daily until delivery (E0.5-E18.5). For osteocalcin or leptin infusion in adult Osteocalcin^−/− or ob/ob mice, pumps (Alzet micro-osmotic pump, Model 1002) delivering osteocalcin (300 ng/hr), leptin (50 ng/hr), or vehicle were surgically installed subcutaneously in the backs of 3-month old mice. For the postnatal rescue of cognitive functions in Osteocalcin^−/− mice, osteocalcin (10 ng/hour) or vehicle were delivered intrasubventricularly (icv) as previously described (Ducy et al., 2000, Cell 100:197-207). Leptin and osteocalcin content in sera and tissues were determined by ELISA.
The pharmacological relevance of this ability of osteocalcin to signal in neurons was established by delivering uncarboxylated osteocalcin through intracerebro-ventricular (ICV) infusions (10 ng/hour) in WT and Osteocalcin^−/− mice. The localization of the cannula was verified by administering methylene blue through these pumps. […] This week-long treatment with uncarboxylated osteocalcin corrected the anxiety and depression features noted in Osteocalcin^−/− mice (FIG. 12A-E). Collectively, the results described herein indicate that osteocalcin alleviates anxiety and depression in the mouse by acting directly in the brain.

Data set [4] has as its system glycolytic and oxidative muscles of WT mice. Nature of the data set: In vivo 3H-2-DG glucose uptake in muscle after exercise. On the set-up: species or system mouse. As to conditions: older WT mice receiving Ocn (500 ng/g) before running; greater extent in oxidative than glycolytic muscles. As for the experimental part:
FIG. 31. Osteocalcin treatment increases muscle function in young and old WT mice. (A-B) Performance during endurance exercise of 3 month-old WT, Gprc6af/f and Gprc6aMck−/− female mice treated with Ocn (n=6-10 per group). (C) Performance during endurance exercise of 12 and 15 month-old WT female mice treated with Ocn (n=6-10 per group). (D) Western blot analysis of Akt phosphorylation (Ser473) in muscles of WT mice injected with Ocn (500 ng/g) after a single bout of exercise. (E) Western blot analysis of AMPK phosphorylation ([…]) in muscles of WT mice injected with Ocn (500 ng/g) after a single bout of exercise. […]
Glucose and insulin tolerance tests were performed as previously described (Lee et al., 2007, Cell 130:456-469). For in vivo glucose uptake, a bolus of 2-deoxy-d-[^3H]glucose (^3H-2-DG, Perkin Elmer) (10 μCi) was administered before an endurance run. ^3H-2-DG and ^3H-2-DG-6-P content in muscle was determined by liquid scintillation counter and normalized to muscle weight. […] GLUT4 translocation was determined by flow cytometry using an antibody against the extracellular domain of the GLUT4 protein (Santa Cruz, Sc-1606). […] To analyze mitochondrial function, myofibers were treated with three compounds in succession (oligomycin 10 μg/ml, FCCP 200 μM, rotenone 0.2 μM) and OCR was recorded following administration of each of them.

Take “uncarboxylated osteocalcin: Recombinant uncarboxylated mouse osteocalcin, bacterially produced, purified on glutathione beads and cleaved from the GST subunit by thrombin (YLGASVPSPDPLEPTREQCELNPACDELSDQYGLKTAYKRIYGITI)”: the glycolysis result in the data set with wild-type is given as “favors”. For the same substance, the glycemia result with wild type mice [1] is on record as “decreases”; in the data set with wild type mice [1] (listed as undercarboxylated osteocalcin) it was “decreased”. Also, the muscle function entry in the data set with Gprc6aMck−/− mice is “did not improve”. In addition, the insulin sensitivity entry is reported as “increased” in the data set on wild type mice [2] and “increases” with wild type mice [2] (listed as Osteocalcin). For the same substance, the “leakage of the centrally delivered hormone into the general circulation” value in data set [3] is listed as “no leakage”. Further, the “glucose uptake in muscle” value in data set [4] is “increase”.
